Assay results reported in PMC12857369 (Kidney International Reports, 2025).

Target: T1, chymase (Homo sapiens, UniProt P23946)
T1 construct: gene CMA1; recombinant human chymase
T1 sequence (P23946 22-247): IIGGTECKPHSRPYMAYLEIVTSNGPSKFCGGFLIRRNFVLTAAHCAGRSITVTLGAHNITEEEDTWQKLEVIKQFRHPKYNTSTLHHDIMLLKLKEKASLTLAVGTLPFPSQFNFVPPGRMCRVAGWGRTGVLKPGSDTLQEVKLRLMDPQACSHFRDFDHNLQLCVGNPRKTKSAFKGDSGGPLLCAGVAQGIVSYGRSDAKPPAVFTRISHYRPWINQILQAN
Experiment: Ang I to Ang II conversion by recombinant human chymase, LC-MS/MS dose response
Type: biochemical

How did the IC50 turn out when `CC(C)C[C@H](NC(=O)[C@@H](NC(=O)N[C@@H](Cc1ccccc1)C(=O)O)[C@@H]1CCN=C(N)N1)C(=O)N[C@H](C=O)Cc1ccccc1` [chymostatin] was run?
Its IC50 is 60 nM.
